The results in this text go back to patent US12091411B2, “IRAK degraders and uses thereof” (Kymera Therapeutics, Inc., priority 2022, dated 2024).

The assay addresses T1, IRAK4 (Homo sapiens, UniProt Q9NWZ3).
T1 construct: Degradation of IRAK4 in OCI-LY10 was quantitatively measured using Meso Scale Discovery technology; endogenous in cells; host or cells: OCI-LY10
T1 sequence (Q9NWZ3 1-460): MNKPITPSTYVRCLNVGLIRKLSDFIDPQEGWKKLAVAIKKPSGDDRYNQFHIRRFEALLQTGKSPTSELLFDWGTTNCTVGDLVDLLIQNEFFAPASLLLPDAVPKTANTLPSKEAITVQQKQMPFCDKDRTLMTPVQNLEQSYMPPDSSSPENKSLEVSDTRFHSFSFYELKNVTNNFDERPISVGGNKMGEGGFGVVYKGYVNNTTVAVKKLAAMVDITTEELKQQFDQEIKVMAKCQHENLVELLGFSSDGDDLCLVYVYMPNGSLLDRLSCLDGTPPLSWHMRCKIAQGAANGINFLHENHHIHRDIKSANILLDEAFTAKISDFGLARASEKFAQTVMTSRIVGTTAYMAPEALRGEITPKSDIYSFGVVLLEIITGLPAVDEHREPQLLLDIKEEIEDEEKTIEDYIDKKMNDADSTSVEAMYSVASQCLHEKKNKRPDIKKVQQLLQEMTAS
In words: IRAK4 MSD Degradation in OCI-LY10. The class given is cell-based. As to conditions: OCI-LY10 cells, MSD. The gist of the method: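 OCI-LY10 cells exposed to 8-point 1:3 compound series (top 1 to 10 μM) for 4 to 24 h at 37 °C, 5% CO2. Lysate IRAK4 quantified by MSD sandwich immunoassay. DC50 from three-parameter logistic fit, binned A (<0.01 μM) to D (>0.2 μM or not tested).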

Where [1] appears, read: 4 hrs incubation, read-out: IRAK4 degradation in OCI-LY10 at 4 hrs: DC50.
[2] abbreviates: 24 hrs incubation, read-out: IRAK4 degradation in OCI-LY10 at 24 hrs: DC50.

Each structure is given as a SMILES string. Like-named read-outs stand apart in the source and are kept apart here.

What is called DC50 is the midpoint of the concentration-degradation curve. With `C[C@H]1CN(c2ccn3ncc(C(=O)Nc4cn([C@H]5CC[C@H](CN(C)C6CCN(c7cccc8c7n(C)c(=O)n8C7CCC(=O)NC7=O)CC6)CC5)nc4C(F)F)c3n2)CCO1` (stereo partly shown) [I-427], the half-maximal degradation concentration (DC50) under setting [1] was over 200 nM and the 50% degradation concentration (DC50) under setting [2] is under 10 nM.
The corresponding values for `C[C@@H]1CN(c2ccn3ncc(C(=O)Nc4cn([C@H]5CC[C@H](CN(C)C6CCN(c7cccc8c7n(C)c(=O)n8C7CCC(=O)NC7=O)CC6)CC5)nc4C(F)F)c3n2)CCO1` (stereo partly shown) [I-428] are over 200 nM and under 10 nM.
The corresponding values for `C[C@@H]1CN(c2ccn3ncc(C(=O)Nc4cn([C@H]5CC[C@H](CN6CCN(CC#Cc7cccc8c7n(C)c(=O)n8C7CCC(=O)NC7=O)CC6)CC5)nc4C(F)F)c3n2)C[C@H](C)O1` (stereo partly shown) [I-429] are over 200 nM and over 200 nM.
The corresponding values for `C[C@H]1CN(c2ccn3ncc(C(=O)Nc4cn([C@H]5CC[C@H](CN6CCN(CC#Cc7cccc8c7n(C)c(=O)n8C7CCC(=O)NC7=O)CC6)CC5)nc4C(F)F)c3n2)C[C@H](C)O1` (stereo partly shown) [I-430] are over 200 nM and under 10 nM.
Consider `C[C@@H]1CN(c2ccn3ncc(C(=O)Nc4cn([C@H]5CC[C@H](CN6CCN(CC#Cc7cccc8c7n(C)c(=O)n8C7CCC(=O)NC7=O)CC6)CC5)nc4C(F)F)c3n2)C[C@@H](C)O1` (stereo partly shown) [I-431], for which the half-maximal degradation concentration (DC50) was over 200 nM under setting [1] and under 10 nM under setting [2].
For `[2H]C([2H])([2H])Oc1ccc2c(c1C1CCN(C[C@H]3CC[C@H](n4cc5cc(NC(=O)c6cccc(C(F)(F)F)n6)ncc5n4)CC3)CC1)n(C([2H])([2H])[2H])c(=O)n2C1CCC(=O)NC1=O` (stereo partly shown) [I-432], the DC50 reads like this: under setting [1], over 200 nM; under setting [2], under 10 nM.
The corresponding values for `Cn1c(=O)n(C2CCC(=O)NC2=O)c2cccc(C#CCOC3CCN(C[C@H]4CC[C@H](n5cc(NC(=O)c6cnn7ccc(N8CCC(F)(F)CC8)nc67)c(C(F)F)n5)CC4)CC3)c21` (stereo partly shown) [I-433] are over 200 nM and under 10 nM.
The corresponding values for `Cn1c(=O)n(C2CCC(=O)NC2=O)c2cccc(C#CCN3CCN(C[C@H]4CC[C@H](n5cc(NC(=O)c6cnn7ccc(N8CCC(F)(F)CC8)nc67)c(C(F)F)n5)CC4)CC3)c21` (stereo partly shown) [I-434] are over 200 nM and under 10 nM.
The corresponding values for `O=C1CCN(c2cccc(C#CCN3CCN(C[C@H]4CC[C@@H](n5cc(NC(=O)c6cnn7ccc(N8CC9CCC(C8)O9)nc67)c(C(F)F)n5)CC4)CC3)c2)C(=O)N1` [I-435] are over 200 nM and over 200 nM.
Take `O=C1CCN(c2cccc(C#CCN3CCN(C[C@H]4CC[C@@H](n5cc(NC(=O)c6cnn7ccc(N8CC9CC(C8)O9)nc67)c(C(F)F)n5)CC4)CC3)c2)C(=O)N1` [I-436]: the DC50 was over 200 nM under setting [1] and over 200 nM under setting [2].
On to `O=C1CCC(c2ccc(C#CCN3CCN(C[C@H]4CC[C@H](n5cc(NC(=O)c6cnn7ccc(N8C[C@H]9C[C@@H]8CO9)nc67)c(C(F)F)n5)CC4)CC3)cc2)C(=O)N1` (stereo partly shown) [I-437], for which the DC50 under setting [1] lay within 10 to 100 nM and the DC50 under setting [2] is over 200 nM.
The corresponding values for `COc1cc2nn([C@H]3CC[C@H](CN4CCC(c5cccc6c5n(C)c(=O)n6C5CCC(=O)NC5=O)CC4)CC3)cc2cc1NC(=O)c1cncc(F)c1` (stereo partly shown) [I-439] are under 10 nM and over 200 nM.
The corresponding values for `C[C@@H]1CN(c2ccn3ncc(C(=O)Nc4cn([C@H]5CC[C@H](CN(C)C6CCN(c7cccc8c7n(C)c(=O)n8C7CCC(=O)NC7=O)CC6)CC5)nc4C(F)F)c3n2)C[C@@H](C)O1` (stereo partly shown) [I-440] are under 10 nM and under 10 nM.
The corresponding values for `C[C@H]1CN(c2ccn3ncc(C(=O)Nc4cn([C@H]5CC[C@H](CN(C)C6CCN(c7cccc8c7n(C)c(=O)n8C7CCC(=O)NC7=O)CC6)CC5)nc4C(F)F)c3n2)C[C@H](C)O1` (stereo partly shown) [I-441] are under 10 nM and under 10 nM.
Turning to `C[C@@H]1CN(c2ccn3ncc(C(=O)Nc4cn([C@H]5CC[C@H](CN(C)C6CCN(c7cccc8c7n(C)c(=O)n8C7CCC(=O)NC7=O)CC6)CC5)nc4C(F)F)c3n2)C[C@H](C)O1` (stereo partly shown) [I-442], the half-maximal degradation concentration (DC50) runs as follows: under setting [1], 10 to 100 nM; under setting [2], under 10 nM.
The corresponding values for `Cn1c(=O)n(C2CCC(=O)NC2=O)c2cccc(C3CCN(C[C@H]4CC[C@H](n5cc6cc(NC(=O)c7cccc(C(F)(F)F)n7)c(C(F)F)cc6n5)CC4)CC3(F)F)c21` (stereo partly shown) [I-443] are over 200 nM and over 200 nM.
The corresponding values for `Cn1c(=O)n(C2CCC(=O)NC2=O)c2cccc(C3CCN(C[C@H]4CC[C@H](n5cc6cc(NC(=O)c7cccc(C(F)(F)F)n7)c(C#N)cc6n5)CC4)CC3(F)F)c21` (stereo partly shown) [I-444] are over 200 nM and over 200 nM.
Regarding `Cn1c(=O)n(C2CCC(=O)NC2=O)c2cccc(C3CCN(C[C@H]4CC[C@H](n5cc6cc(NC(=O)c7cccc(C(F)(F)F)n7)ccc6n5)CC4)CC3(F)F)c21` (stereo partly shown) [I-445], the DC50 runs as follows: under setting [1], over 200 nM; under setting [2], over 200 nM.
On to `COc1ccc2c(c1C1CCN(C[C@H]3CC[C@H](n4cc5cc(NC(=O)c6cccc(C(F)(F)F)n6)ccc5n4)CC3)CC1(F)F)n(C)c(=O)n2C1CCC(=O)NC1=O` (stereo partly shown) [I-446], for which the half-maximal degradation concentration (DC50) by setting is: under setting [1], over 200 nM; under setting [2], over 200 nM.
On to `Cn1c(=O)n(C2CCC(=O)NC2=O)c2cccc(C3CCN(C[C@H]4CC[C@H](n5cc6cc(NC(=O)c7cccc(C(F)(F)F)n7)ncc6n5)CC4)CC3(F)F)c21` (stereo partly shown) [I-447], for which the DC50 is over 200 nM under setting [1] and under 10 nM under setting [2].
The corresponding values for `COc1ccc2c(c1C1CCN(C[C@H]3CC[C@H](n4cc5cc(NC(=O)c6cccc(C(F)(F)F)n6)ncc5n4)CC3)CC1(F)F)n(C)c(=O)n2C1CCC(=O)NC1=O` (stereo partly shown) [I-448] are over 200 nM and over 200 nM.
For `Cn1c(=O)n(C2CCC(=O)NC2=O)c2cccc(C3CCN(C[C@H]4CC[C@H](n5cc6cc(NC(=O)c7cccc(C(F)(F)F)n7)c(F)cc6n5)CC4)CC3(F)F)c21` (stereo partly shown) [I-449], the 50% degradation concentration (DC50) under setting [1] was over 200 nM and the DC50 under setting [2] is over 200 nM.
As for `Cn1c(=O)n(C2CCC(=O)NC2=O)c2cccc(C3CCN(C[C@H]4CC[C@H](n5cc6cc(NC(=O)c7cccc(C(F)(F)F)n7)c(Cl)cc6n5)CC4)CC3(F)F)c21` (stereo partly shown) [I-450], the DC50 by setting is: under setting [1], over 200 nM; under setting [2], over 200 nM.
With `COc1cc2nn([C@H]3CC[C@H](CN4CCC(c5cccc6c5n(C)c(=O)n6C5CCC(=O)NC5=O)C(F)(F)C4)CC3)cc2cc1NC(=O)c1cccc(C(F)(F)F)n1` (stereo partly shown) [I-451], the DC50 by setting is: under setting [1], over 200 nM; under setting [2], over 200 nM.
For the compound `Cc1cc2nn([C@H]3CC[C@H](CN4CCC(c5cccc6c5n(C)c(=O)n6C5CCC(=O)NC5=O)C(F)(F)C4)CC3)cc2cc1NC(=O)c1cccc(C(F)(F)F)n1` (stereo partly shown) [I-452], the DC50 under setting [1] is over 200 nM and the 50% degradation concentration (DC50) under setting [2] was over 200 nM.
Take `COc1ccc2c(c1N1CCC(N(C)C[C@H]3CC[C@H](n4cc(NC(=O)c5cnn6cccnc56)c(C(F)F)n4)CC3)C(F)(F)C1)n(C)c(=O)n2C1CCC(=O)NC1=O` (stereo partly shown) [I-453]: the half-maximal degradation concentration (DC50) was over 200 nM under setting [1] and over 200 nM under setting [2].
`Cn1c(=O)n(C2CCC(=O)NC2=O)c2cccc(C3=CCN(C[C@H]4CC[C@H](n5cc6cc(NC(=O)c7cccc(C(F)(F)F)n7)ccc6n5)CC4)CC3(F)F)c21` (stereo partly shown) [I-454]: the 50% degradation concentration (DC50) by setting is: under setting [1], over 200 nM; under setting [2], over 200 nM.
`Cn1c(=O)n(C2CCC(=O)NC2=O)c2cccc(C3=CCN(C[C@H]4CC[C@H](n5cc6cc(NC(=O)c7cccc(C(F)(F)F)n7)c(C#N)cc6n5)CC4)CC3(F)F)c21` (stereo partly shown) [I-455]: the DC50 under setting [1] was over 200 nM and the 50% degradation concentration (DC50) under setting [2] is over 200 nM.
On to `Cn1c(=O)n(C2CCC(=O)NC2=O)c2cccc(C3=CCN(C[C@H]4CC[C@H](n5cc6cc(NC(=O)c7cccc(C(F)(F)F)n7)c(C(F)F)cc6n5)CC4)CC3(F)F)c21` (stereo partly shown) [I-456], for which the 50% degradation concentration (DC50) is, setting by setting: under setting [1], over 200 nM; under setting [2], over 200 nM.
Regarding `Cn1c(=O)n(C2CCC(=O)NC2=O)c2cccc(C3=CCN(C[C@H]4CC[C@H](n5cc6cc(NC(=O)c7cccc(C(F)(F)F)n7)ccc6n5)CC4)CC3F)c21` (stereo partly shown) [I-457], the DC50 runs as follows: under setting [1], over 200 nM; under setting [2], over 200 nM.
Regarding `Cn1c(=O)n(C2CCC(=O)NC2=O)c2cccc(C3=CCN(C[C@H]4CC[C@H](n5cc6cc(NC(=O)c7cccc(C(F)(F)F)n7)c(C#N)cc6n5)CC4)CC3F)c21` (stereo partly shown) [I-458], the DC50 by setting is: under setting [1], over 200 nM; under setting [2], over 200 nM.
`Cn1c(=O)n(C2CCC(=O)NC2=O)c2cccc(C3=CCN(C[C@H]4CC[C@H](n5cc6cc(NC(=O)c7cccc(C(F)(F)F)n7)c(C(F)F)cc6n5)CC4)CC3F)c21` (stereo partly shown) [I-459]: the half-maximal degradation concentration (DC50) reads like this: under setting [1], over 200 nM; under setting [2], over 200 nM.
Turning to `Cn1c(=O)n(C2CCC(=O)NC2=O)c2cccc(C3CCN(C[C@H]4CC[C@H](n5cc6cc(NC(=O)c7cccc(C(F)(F)F)n7)ccc6n5)CC4)CC3O)c21` (stereo partly shown) [I-460], the half-maximal degradation concentration (DC50) by setting is: under setting [1], over 200 nM; under setting [2], over 200 nM.
Turning to `Cn1c(=O)n(C2CCC(=O)NC2=O)c2cccc(C3CCN(C[C@]4(O)CC[C@@H](n5cc6cc(NC(=O)c7cccc(C(F)(F)F)n7)ccc6n5)CC4)CC3)c21` (stereo partly shown) [I-461], the 50% degradation concentration (DC50) is, setting by setting: under setting [1], over 200 nM; under setting [2], over 200 nM.
Turning to `COc1cc2nn([C@H]3CC[C@H](CN4CC=C(c5ccc6c(c5)n(C)c(=O)n6C5CCC(=O)NC5=O)C(F)(F)C4)CC3)cc2cc1NC(=O)c1cccc(C(F)(F)F)n1` (stereo partly shown) [I-462], the 50% degradation concentration (DC50) runs as follows: under setting [1], over 200 nM; under setting [2], over 200 nM.
